Earlier results in US7445902B2, “Fluorescent nucleotide analogues” (GE Healthcare UK Limited, priority 2004, dated 2008).

Tested on: receptor-Gαs/Gαi fusion proteins
Details: binding to receptor-Gαs/Gαi fusion proteins in the expression systems employed

Row | Substance | fold lower affinity than GppNHp (relative to GppNHp) | fold lower affinity than GTPγS (relative to GTPγS)
1 | BODIPY-FL-guanosine 5′-[β,γ-imido]triphosphate [B-GppNHp] | 17-55 fold | 
2 | BODIPY-FL-guanosine 5′-[γ-thio]triphosphate [B-GTPγS] |  | 1,100-5,600 fold
